In brackets after ≈: the same amount, converted by molar mass. Like-named read-outs stand apart in the source and are kept apart here.
Assays:
[1] = system: S. pneumoniae (pneumococci); assay: Broth microdilution MIC (Example 11); assay type: cell-based, Streptococcus pneumoniae
[2] = system: beta-hemolytic streptococci (S. pyogenes, S. agalactiae); assay: Broth microdilution MIC (Example 11); assay type: cell-based, Streptococcus pyogenes, Streptococcus agalactiae
[3] = system: S. pneumoniae (pneumococci); details: S. pneumoniae MMX 6837 (ATCC 49619); cited from earlier work
Candida spp. [4] = assay: Broth microdilution MIC, yeast (Example 13), group statement and QC; assay type: cell-based; details: C. parapsilosis ATCC 22019, comparators, single value
Candida krusei [5] = assay: Broth microdilution MIC, yeast (Example 13); assay type: cell-based; details: C. krusei ATCC 6258 (QC, Table 110), comparators, single value
Aspergillus spp. [6] = assay: Broth microdilution MIC/MEC, mold (Example 13); assay type: cell-based
E. coli ATCC 25922 = assay: Broth microdilution MIC, QC organism (Example 13, Table 110); assay type: cell-based, Escherichia coli
Excerpt: (§1) MECs were only reported where observed.

S. aureus ATCC 29213 = assay: as above; assay type: cell-based, Staphylococcus aureus
Excerpt: as §1

Candida spp. [7] = details: C. parapsilosis ATCC 22019, CLSI established QC range, cited from earlier work
Candida krusei [8] = details: C. krusei ATCC 6258, CLSI established QC range, cited from earlier work
Aspergillus spp. [9] = details: cited from earlier work
[10] = system: Candida spp. (C. parapsilosis, C. albicans, C. glabrata, C. tropicalis); assay: Broth microdilution MIC, yeast (Example 11); assay type: cell-based
[11] = system: Candida spp. (C. parapsilosis, C. albicans, C. glabrata, C. tropicalis); details: C. parapsilosis MMX 2323 (ATCC 22019), cited from earlier work
[12] = system: Enterococcus spp. (E. faecalis, E. faecium); assay: Broth microdilution MIC (Example 11); assay type: cell-based; details: VRE, VRE
[13] = system: Staphylococcus aureus (MRSA); details: S. aureus MMX 101 (ATCC 29213); cited from earlier work
Escherichia coli = details: E. coli MMX 102 (ATCC 25922); cited from earlier work
Pseudomonas aeruginosa = details: P. aeruginosa MMX 103 (ATCC 27853); cited from earlier work
[14] = S. agalactiae MMX 3741, ERY^R CC^R
[15] = S. agalactiae MMX 3743, ERY^R CC^R
[16] = S. agalactiae MMX 4077, ERY^R CC^R
[17] = S. agalactiae MMX 4079, ERY^R CC^R Pen^R MEM^R
[18] = S. agalactiae MMX 4086, ERY^R CC^R
[19] = A. flavus ATCC 204304 (QC, Table 110)
[20] = A. fumigatus ATCC MYA-3626 (QC, Table 110)
[21] = A. flavus ATCC 204304, CLSI established QC range
[22] = A. fumigatus ATCC MYA-3626, CLSI established QC range
[23] = Enterococcus faecium, E. faecium MMX 485, vanA, LevR, CipR, EryR, read-out: MIC

Compound: Penicillin
- MIC ([1]; S. pneumoniae MMX 880, Lev^R SXT^R CC^R Ery^R Pen^R): 2 µg/mL
- MIC ([1]; S. pneumoniae MMX 937, Mem^R SXT^R CC^R Ery^R Pen^R): 4 µg/mL
- MIC ([1]; S. pneumoniae MMX 3959, CC^R Ery^R): 0.12 µg/mL
- MIC ([1]; S. pneumoniae MMX 5440, Mem^R SXT^R CC^R Ery^R Pen^R): 4 µg/mL
- MIC ([1]; S. pneumoniae MMX 5445, Mem^R SXT^R CC^R Ery^R Pen^R): 4 µg/mL
- MIC ([1]; S. pneumoniae MMX 6837 (ATCC 49619), QC): 0.25 µg/mL
- MIC ([1]; S. pneumoniae MMX 8133, Mem^R SXT^R CC^R Ery^R Pen^R): 4 µg/mL
- MIC [2, 14]: 0.03 µg/mL
- MIC [2, 15]: 0.06 µg/mL
- MIC [2, 16]: 0.06 µg/mL
- MIC [2, 17]: 2 µg/mL
- MIC [2, 18]: 0.06 µg/mL
- MIC ([2]; S. pyogenes MMX 3068, Ery^R): ≤0.008 µg/mL
- MIC ([2]; S. pyogenes MMX 3820, ERY^R CLI^R): ≤0.008 µg/mL
- MIC ([2]; S. pyogenes MMX 3919, ERY^R): ≤0.008 µg/mL
- MIC ([2]; S. pyogenes MMX 3929, ERY^R CC^R): ≤0.008 µg/mL
- MIC ([2]; S. pyogenes MMX 5091, ERY^R CC^R): ≤0.008 µg/mL
- MIC, CLSI QC range [3]: (0.25-1) μg/mL

Compound: C[C@@H](c1ncncc1F)[C@](O)(Cn1cncn1)c1ccc(F)cc1F [Voriconazole]
- MIC 48 hr (Candida spp. [4]): 0.12 µg/mL (≈ 0.344 µM)
- MIC 24 hr (Candida krusei [5]): 0.12 µg/mL (≈ 0.344 µM)
- MIC 48 hr (Candida krusei [5]): 0.5 µg/mL (≈ 1.43 µM)
- MIC 24 hr (Aspergillus spp. [6]; [19]): 0.12 µg/mL (≈ 0.344 µM)
- MIC 24 hr (Aspergillus spp. [6]; [20]): 0.25 µg/mL (≈ 0.716 µM)
- MIC 24 hr (E. coli ATCC 25922): > 64 µg/mL
- MIC 24 hr (S. aureus ATCC 29213): > 64 µg/mL
- QC Range 24 hr (Candida spp. [7]): 0.015-0.12
- QC Range 48 hr (Candida spp. [7]): 0.03-0.25
- QC Range 24 hr (Candida krusei [8]): 0.06-0.5
- QC Range 48 hr (Candida krusei [8]): 0.12-1
- QC Range 48 hr (Aspergillus spp. [9]; [21]): 0.5-4
- QC Range 48 hr (Aspergillus spp. [9]; [22]): 0.25-1

Compound: C[C@@H]1[C@H](O)[C@@H](C)/C=C/C=C/C=C/C=C/C=C/C=C/C=C/[C@H](O[C@@H]2O[C@H](C)[C@@H](O)[C@H](N)[C@@H]2O)C[C@@H]2O[C@](O)(C[C@@H](O)C[C@@H](O)[C@H](O)CC[C@@H](O)C[C@@H](O)CC(=O)O[C@H]1C)C[C@H](O)[C@H]2C(=O)O [Amphotericin B]
- MIC ([10]; C. albicans MMX 7039, Sensitive, 24 hr): 0.5, 0.5 μg/mL
- MIC ([10]; C. albicans MMX 7039, Sensitive, 48 hr): 0.5, 0.5 μg/mL
- MIC ([10]; C. albicans MMX 7055, Sensitive, 24 hr): 0.25 µg/mL (≈ 0.271 µM)
- MIC ([10]; C. albicans MMX 7055, Sensitive, 48 hr): 0.5 µg/mL (≈ 0.541 µM)
- MIC ([10]; C. glabrata MMX 7086, FLU^R, 24 hr): 0.5 µg/mL (≈ 0.541 µM)
- MIC ([10]; C. glabrata MMX 7086, FLU^R, 48 hr): 1 µg/mL (≈ 1.08 µM)
- MIC ([10]; C. glabrata MMX 7318, FLU^R, 24 hr): 0.5 µg/mL (≈ 0.541 µM)
- MIC ([10]; C. glabrata MMX 7318, FLU^R, 48 hr): 1 µg/mL (≈ 1.08 µM)
- MIC ([10]; C. parapsilosis MMX 2323 (ATCC 22019), QC, 24 hr): 0.5 µg/mL (≈ 0.541 µM)
- MIC ([10]; C. parapsilosis MMX 2323 (ATCC 22019), QC, 48 hr): 1 µg/mL (≈ 1.08 µM)
- MIC ([10]; C. parapsilosis MMX 7370, FLU^R, 24 hr): 0.5 µg/mL (≈ 0.541 µM)
- MIC ([10]; C. parapsilosis MMX 7370, FLU^R, 48 hr): 1 µg/mL (≈ 1.08 µM)
- MIC ([10]; C. parapsilosis MMX 7555, FLU^R, 24 hr): 0.5, 0.5 μg/mL
- MIC ([10]; C. parapsilosis MMX 7555, FLU^R, 48 hr): 0.5, 0.5 μg/mL
- MIC ([10]; C. tropicalis MMX 7247, FLU^R, 24 hr): 0.5 µg/mL (≈ 0.541 µM)
- MIC ([10]; C. tropicalis MMX 7247, FLU^R, 48 hr): 1 µg/mL (≈ 1.08 µM)
- MIC ([10]; C. tropicalis MMX 7248, FLU^R, 24 hr): 0.5 µg/mL (≈ 0.541 µM)
- MIC ([10]; C. tropicalis MMX 7248, FLU^R, 48 hr): 1 µg/mL (≈ 1.08 µM)
- MIC ([10]; C. tropicalis MMX 7360, FLU^R, 24 hr): 0.5, 0.5 μg/mL
- MIC ([10]; C. tropicalis MMX 7360, FLU^R, 48 hr): 0.5, 0.5 μg/mL
- MIC 24 hr (Candida spp. [4]): 0.5 µg/mL (≈ 0.541 µM)
- MIC 48 hr (Candida spp. [4]): 0.5 µg/mL (≈ 0.541 µM)
- MIC 24 hr (Candida krusei [5]): 0.5 µg/mL (≈ 0.541 µM)
- MIC 48 hr (Candida krusei [5]): 0.5 µg/mL (≈ 0.541 µM)
- MIC 24 hr (Aspergillus spp. [6]; [19]): 0.5 µg/mL (≈ 0.541 µM)
- MIC 48 hr (Aspergillus spp. [6]; [19]): 1 µg/mL (≈ 1.08 µM)
- MIC 24 hr (Aspergillus spp. [6]; [20]): 0.5 µg/mL (≈ 0.541 µM)
- MIC 48 hr (Aspergillus spp. [6]; [20]): 1 µg/mL (≈ 1.08 µM)
- MIC 24 hr (E. coli ATCC 25922): > 64 µg/mL
- MIC 24 hr (S. aureus ATCC 29213): > 64 µg/mL
- MIC, CLSI QC range ([11]; 24 hr): 0.25 to 2 µg/mL
- MIC, CLSI QC range ([11]; 48 hr): 0.5 to 4 µg/mL
- QC Range 24 hr (Candida spp. [7]): 0.25-2
- QC Range 48 hr (Candida spp. [7]): 0.5-4
- QC Range 24 hr (Candida krusei [8]): 0.5-2
- QC Range 48 hr (Candida krusei [8]): 1-4
- QC Range 48 hr (Aspergillus spp. [9]; [21]): 0.5-4
- QC Range 48 hr (Aspergillus spp. [9]; [22]): 0.5-4

Compound: CC[C@H]1OC(=O)[C@H](C)[C@@H](O[C@H]2C[C@@](C)(OC)[C@@H](O)[C@H](C)O2)[C@H](C)[C@@H](O[C@@H]2O[C@H](C)C[C@H](N(C)C)[C@H]2O)[C@](C)(O)C[C@@H](C)C(=O)[C@H](C)[C@@H](O)[C@]1(C)O [Erythromycin]
- MIC [12, 23]: > 64 µg/mL
- MIC ([2]; S. agalactiae MMX 3741, ERY^R CC^R, read-out: MIC): 8 µg/mL (≈ 10.9 µM)
- MIC ([2]; S. agalactiae MMX 3743, ERY^R CC^R, read-out: MIC): > 8 µg/mL
- MIC ([2]; S. agalactiae MMX 4077, ERY^R CC^R, read-out: MIC): > 8 µg/mL
- MIC ([2]; S. agalactiae MMX 4079, ERY^R CC^R Pen^R MEM^R, read-out: MIC): > 8 µg/mL
- MIC ([2]; S. agalactiae MMX 4086, ERY^R CC^R, read-out: MIC): > 8 µg/mL
- CLSI QC range (MIC) [13]: (0.25-1) μg/mL
- MIC, CLSI QC range [3]: (0.03-0.12) μg/mL

Compound: CN[C@H](CC(C)C)C(=O)N[C@H]1C(=O)N[C@@H](CC(N)=O)C(=O)N[C@H]2C(=O)N[C@H]3C(=O)N[C@H](C(=O)N[C@H](C(=O)O)c4cc(O)cc(O)c4-c4cc3ccc4O)[C@H](O)c3ccc(c(Cl)c3)Oc3cc2cc(c3O[C@@H]2O[C@H](CO)[C@@H](O)[C@H](O)[C@H]2O[C@H]2C[C@](C)(N)[C@H](O)[C@H](C)O2)Oc2ccc(cc2Cl)[C@H]1O [vancomycin, reference compound]
- MIC ([12]; E. faecalis MMX 8961, LevR, CipR, EryR): >64 µg/mL
- MIC ([12]; E. faecalis MMX 8962, LevR, CipR, EryR): >64 µg/mL
- MIC ([12]; E. faecium MMX 485, vanA, LevR, CipR, EryR): >64 µg/mL
- MIC ([12]; Enterococcus faecalis): > 64 µg/mL
- MIC ([12]; Enterococcus faecium): > 64 µg/mL
- MIC [2, 14]: 0.5 µg/mL (≈ 0.345 µM)
- MIC [2, 15]: 0.5 µg/mL (≈ 0.345 µM)
- MIC [2, 16]: 0.5 µg/mL (≈ 0.345 µM)
- MIC [2, 17]: 2 µg/mL (≈ 1.38 µM)
- MIC [2, 18]: 1 µg/mL (≈ 0.69 µM)
- CLSI QC range (MIC) [13]: (0.5-2) μg/mL
- MIC, CLSI QC range [3]: (0.12-0.5) μg/mL

Compound: CC(C)(O/N=C(\C(=O)N[C@@H]1C(=O)N2C(C(=O)[O-])=C(C[n+]3ccccc3)CS[C@H]12)c1csc(N)n1)C(=O)O [Ceftazidime]
- MIC [12, 23]: > 32 µg/mL
- CLSI QC range (MIC) (Escherichia coli): (0.06-0.5) μg/mL
- CLSI QC range (MIC) (Pseudomonas aeruginosa): (1-4)
- CLSI QC range (MIC) [13]: (4-16) μg/mL

Compound: OC(Cn1cncn1)(Cn1cncn1)c1ccc(F)cc1F [fluconazole, reference compound]
- MIC 24 hr (Candida spp. [4]): 1 µg/mL (≈ 3.27 µM)
- MIC 24 hr (Candida krusei [5]): 16 µg/mL (≈ 52.2 µM)
- MIC 48 hr (Candida krusei [5]): 32 µg/mL (≈ 104 µM)
- activity (Aspergillus spp. [6]; Aspergillus spp.): inactive
- MIC 24 hr (E. coli ATCC 25922): > 64 µg/mL
- MIC 24 hr (S. aureus ATCC 29213): > 64 µg/mL
- MIC, CLSI QC range ([11]; 24 hr): 0.5 to 4 µg/mL
- MIC, CLSI QC range ([11]; 48 hr): 1 to 4 µg/mL
- QC Range 24 hr (Candida spp. [7]): 0.5-4
- QC Range 48 hr (Candida spp. [7]): 1-4
- QC Range 24 hr (Candida krusei [8]): 8-64
- QC Range 48 hr (Candida krusei [8]): 16-128

Reference: patent US12186283B2, “Bismuth-thiol compositions and methods of use” (Microbion Corporation, priority 2018, dated 2025)
